Patent US11352352B2, “Aminopyrimidine compound, preparation method therefor and use thereof” (BEIJING ADAMADLE BIOTECHNOLOGY LIMITED LIABILITY COMPANY, priority 2017, dated 2022)
pIC50: −log10 of the molar value.

Key:
A-431 = test: Cell proliferation inhibition experiment, CellTiter-Glo (CTG) method; type: cell-based; conditions: A-431 cells, 3 days
How it was run: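 Luminescent ATP read-out (CellTiter-Glo) after 3-day compound exposure at 37 °C; a T0 plate was read on the day of dosing. Nine concentrations, 3-fold steps, triplicate wells: A-431 from 30 μM, NCI-H1975 and PC-9 from 1.111 μM. IC50 by non-linear S-curve regression.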

P-gp = biological target: T1, P-gp (Homo sapiens, UniProt P08183); test: P-gp substrate evaluation experiment (MDCKII-MDR1 Transwell drug penetration test); type: in vitro ADME; conditions: dog, MDCK-MDR1, pH 7.4; read-out: ER (Efflux Ratio)
T1 construct: expressed in transfected cells; host or cells: MDCKII-MDR1 (MDCKII canine kidney cells expressing MDR1)
Procedure: P-gp Substrate Evaluation Experiment
Cell Culture • 1) High glucose DMEM medium containing L-glutamine was used and 10% fetal bovine serum, 0.1 mg/mL streptomycin and 0.6 mg/mL penicillin were added. • 2) MDCKII-MDR1 was cultured in a T-75 cell culture bottle. The incubator was set at the condition of 37° C., 5% CO2 and 95% relative humidity. Cells could be inoculated in Transwell when the cell confluence reached 70-90%. • 3) Before cell plant, 50 μL cell culture medium was added to each well in the upper chamber of the Transwell, and […] cell culture medium was added to the lower chamber of the Transwell.
Inoculation of MDCKII-MDR1 Cells • 1) Cell suspension was added to the upper chamber of the 96-well Transwell plate with […] each well, and the final inoculation density was 5.45×10^5 cells/cm^2. • 2) The medium was changed 48 hours after inoculation, the culture was carried out for 4-7 days, and the medium was changed every other day.
Evaluation of Cell Monolayer Integrity • 1) After 4-7 days of culture, MDCKII-MDR1 and MDKII should merge and differentiate completely. At this time, they could be applied to penetration test. • 2) The resistance of cell monolayer was measured by a resistance meter (Millipore, USA) and the resistance of each well was recorded. • 3) After finishing the detection, the Transwell plate was put back into the incubator. • 4) Resistance value was calculated: Resistance measured (ohms)×layer area (cm^2)=TEER value (ohm·cm^2)
If TEER value was less than 42 ohms·cm^2, the well can not be used for penetration testing.
Drug Penetration Test • 1) The MDCKII-MDR1 Transwell plate was taken out from the incubator. The cell monolayer was rinsed with HBSS buffer (25 mM HEPES, pH 7.4) twice and incubated for 30 minutes at 37° C. • 2) The transport rate of compounds from the top to the bottom was determined. […] 70 μL supernatant was drawn, diluted with equal volume of water and then subjected to LC-MS/MS analysis. All samples were prepared in three parallel ways. • 6) The cell monolayer integrity after 2-hour incubation was evaluated by leakage of fluorescent yellow, HBSS (25 mM HEPES, pH 7.4) was used to dilute the stock solution of fluorescent yellow till the final concentration was 100 μM. 100 μL fluorescent yellow solution was added to each well in the upper chamber of the Transwell plate and 300 μL HBSS (25 mM HEPES, pH 7.4) was added to each well in the lower chamber of the Transwell plate. After incubation at 37° C. for 30 minutes, 80 μL solution was drawn respectively from each well in the upper and lower chamber to a new 96-well plate. The fluorescence was determined at 485 nm as excitation wavelength and 530 nm as emission wavelength by using a microplate reader.
Data calculation was carried out through Excel, the apparent permeability index (Papp, cm/s) of compounds was calculated through the formula shown as follow: […]
wherein, the membrane area in the formula is the membrane area of Transwell-96 plate (0.143 cm^2); the unit of incubation time is second (s).
Efflux ratio was calculated through the formula shown as follow: […]

PC-9 = test: Cell proliferation inhibition experiment, CellTiter-Glo (CTG) method; type: cell-based; conditions: PC-9 cells, 3 days
How it was run: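 Cells in log-phase growth (viability above 90% by trypan blue) were seeded at 90 μL per well in black-walled, clear-bottom 96-well plates and incubated overnight at 37° C., 5% CO2. A T0 plate was read the next day. Test compounds were added at nine concentrations in triplicate with a solvent control. Viability was measured by CellTiter-Glo luminescence on EnVision, and IC50 came from non-linear S-curve fitting in GraphPad Prism 5.0.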

NCI-H1975 = test: as above; type: cell-based; conditions: for pIC50: NCI-H1975 cells, CTG, 3 days; for A-431/NCI-H1975 Selectivity: ratio of A-431 IC50 to NCI-H1975 IC50
How it was run: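 NCI-H1975 cells with viability above 90% by trypan blue were seeded at 90 μL per well in black 96-well plates and incubated overnight at 37° C., 5% CO2. Compounds were added at nine concentrations in triplicate, and viability was measured with CellTiter-Glo luminescence on EnVision. IC50 came from non-linear S-curve fitting in GraphPad Prism 5.0.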

T1 sequence (P08183 whole entry): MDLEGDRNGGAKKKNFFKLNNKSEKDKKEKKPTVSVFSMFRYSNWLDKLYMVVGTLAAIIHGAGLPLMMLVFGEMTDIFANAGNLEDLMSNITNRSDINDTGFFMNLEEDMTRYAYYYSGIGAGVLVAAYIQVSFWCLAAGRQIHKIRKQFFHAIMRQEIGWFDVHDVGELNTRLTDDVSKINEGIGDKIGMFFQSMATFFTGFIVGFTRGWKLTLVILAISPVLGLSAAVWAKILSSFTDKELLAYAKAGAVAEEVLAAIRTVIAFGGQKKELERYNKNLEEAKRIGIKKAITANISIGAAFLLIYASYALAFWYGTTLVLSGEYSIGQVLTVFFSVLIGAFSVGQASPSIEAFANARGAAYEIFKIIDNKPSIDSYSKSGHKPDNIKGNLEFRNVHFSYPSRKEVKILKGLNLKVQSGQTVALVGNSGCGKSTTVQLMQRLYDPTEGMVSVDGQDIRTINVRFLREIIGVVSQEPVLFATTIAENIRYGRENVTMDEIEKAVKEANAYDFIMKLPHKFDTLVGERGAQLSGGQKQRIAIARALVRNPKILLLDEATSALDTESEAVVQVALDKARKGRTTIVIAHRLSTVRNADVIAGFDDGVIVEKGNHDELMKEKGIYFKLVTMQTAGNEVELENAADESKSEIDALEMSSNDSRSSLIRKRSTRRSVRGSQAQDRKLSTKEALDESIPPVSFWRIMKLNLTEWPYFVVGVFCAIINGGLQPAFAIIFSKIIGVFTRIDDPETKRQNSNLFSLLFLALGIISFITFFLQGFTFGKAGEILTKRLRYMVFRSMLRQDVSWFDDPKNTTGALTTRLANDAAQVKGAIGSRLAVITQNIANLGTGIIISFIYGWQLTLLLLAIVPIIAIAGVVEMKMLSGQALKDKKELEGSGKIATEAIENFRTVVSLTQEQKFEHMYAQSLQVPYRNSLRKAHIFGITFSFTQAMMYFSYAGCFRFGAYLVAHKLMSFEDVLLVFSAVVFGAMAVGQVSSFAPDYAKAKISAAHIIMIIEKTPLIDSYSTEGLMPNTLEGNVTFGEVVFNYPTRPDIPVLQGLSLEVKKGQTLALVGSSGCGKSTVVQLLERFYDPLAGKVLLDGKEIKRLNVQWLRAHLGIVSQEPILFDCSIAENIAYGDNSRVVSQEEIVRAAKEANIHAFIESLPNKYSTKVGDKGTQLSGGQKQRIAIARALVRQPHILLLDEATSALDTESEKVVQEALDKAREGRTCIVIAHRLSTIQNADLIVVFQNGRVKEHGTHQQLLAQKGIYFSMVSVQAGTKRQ

SMILES | pIC50 (A-431; Homo sapiens, A-431, 72 h) | efflux ratio at 2 h (P-gp) | pIC50 (PC-9; Homo sapiens, PC-9, 72 h) | pIC50 (NCI-H1975; Homo sapiens, NCI-H1975, 72 h) | A-431/NCI-H1975 Selectivity (NCI-H1975) | pIC50 (A-431) | pIC50 (PC-9) | pIC50 (NCI-H1975)
C=CC(=O)Nc1cc(Nc2cc(-c3ccc4c(cnn4C)c3)ncn2)c(OC)cc1N1CCC(N2CCCCC2)CC1 [compound 144] | 6.24 | 11.6 | 7.79 | 8.17 | 84.1 | – | – | –
C=CC(=O)Nc1cc(Nc2cc(-c3ccc4c(cnn4C)c3)ncn2)c(OC)cc1N1CCC(N2CCCC2)CC1 [compound 108] | 6.25 | 18.1 | 8.24 | 8.49 | 177.3 | – | – | –
C=CC(=O)Nc1cc(Nc2nccc(-c3ccc4c(cnn4C)c3)n2)c(OC)cc1N(C)CCN(C)C [compound 3] | 6.31 | 5.87 | 8.10 | 8.39 | 120.3 | – | – | –
C=CC(=O)Nc1cc(Nc2cc(-c3ccc4cnn(C)c4c3)ncn2)c(OC)cc1N(C)CCN(C)CC [compound 180] | 6.05 | 3.07 | 8.42 | 7.60 | 35.6 | – | – | –
C=CC(=O)Nc1cc(Nc2cc(-c3ccc4cnn(C)c4c3)ncn2)c(OC)cc1N1CCC(N2CCCCC2)CC1 [compound 179] | 6.01 | 17.1 | 8.54 | 7.79 | 60.7 | – | – | –
C=CC(=O)Nc1cc(Nc2cc(-c3ccc4cnn(C)c4c3)ncn2)c(OC(F)F)cc1N(C)CCN(C)C [compound 176] | 5.97 | 3.98 | 8.32 | 7.67 | 50.9 | – | – | –
C=CC(=O)Nc1c(N(C)CCN(C)CC)cc(OC)c(Nc2cc(-c3ccc4c(cnn4C)c3)ncn2)c1F [compound 200] | 6.01 | – | 7.57 | 7.85 | – | – | – | –
C=CC(=O)Nc1cc(Nc2cc(-c3ccc4cnn(C)c4c3)ncn2)c(OC)cc1N1CCC(C2CCOCC2)CC1 [compound 209] | 5.79 | – | 7.92 | 7.61 | 65.7 | – | – | –
C=CC(=O)Nc1cc(Nc2cc(-c3ccc4c(cnn4C)c3)ncn2)c(OC)cc1N(C)CCN1CCCCC1 [compound 37] | 5.76 | – | 7.10 | 7.17 | 25.5 | – | – | –
C=CC(=O)Nc1cc(Nc2cc(-c3ccc4cnn(C)c4c3)ncn2)c(OC)cc1N1CCN(C)[C@H](C)C1 [compound 51] | 5.84 | – | 7.22 | 7.16 | 20.8 | – | – | –
C=CC(=O)Nc1cc(Nc2cc(-c3ccc4c(cnn4C)c3)ncn2)c(OC)cc1N(C)CCN1C[C@@H](C)N(C)[C@@H](C)C1 [compound 125] | 5.80 | – | 7.66 | 7.49 | 49.2 | – | – | –
C=CC(=O)Nc1cc(Nc2cc(-c3ccc4c(cnn4C)c3)ncn2)c(OCC)cc1N(C)CCN(C)C [compound 289] | 5.98 | – | 7.62 | 7.91 | 85.1 | – | – | –
C=CC(=O)Nc1cc(Nc2nccc(-c3ccc4c(cnn4C)c3)n2)c(OC2CC2)cc1N(C)CCN(C)C [compound 292] | 5.53 | – | 7.19 | 7.04 | 32.9 | – | – | –
C=CC(=O)Nc1cc(Nc2cc(-c3ccc4c(cnn4C)c3)ncn2)c(OC(F)F)cc1N1CCC(N2CCCC2)CC1 [compound 150] | 6.27 | – | 7.71 | 8.28 | 102.5 | – | – | –
C=CC(=O)Nc1cc(Nc2cc(-c3ccc4cnn(C)c4c3)ncn2)c(OC(F)F)cc1NCCN(C)C [compound 181] | 5.77 | – | 7.67 | 7.34 | 36.7 | – | – | –
C=CC(=O)Nc1cc(Nc2nccc(-c3ccc4c(cnn4C)c3)n2)c(OC)cc1N1C[C@@H](C)N[C@@H](C)C1 [compound 280] | 5.49 | – | 7.06 | 7.00 | 32.4 | – | – | –
C=CC(=O)Nc1cc(Nc2cc(-c3ccc4c(cnn4C)c3)ncn2)c(OC)cc1N1CCN(C2CCN(C)CC2)CC1 [compound 133] | 6.22 | – | 7.97 | 8.00 | 60.4 | – | – | –
C=CC(=O)Nc1cc(Nc2cc(-c3ccc4c(cnn4C)c3)ncn2)c(OCC)cc1N(C)CCN1CCN(C)CC1 [compound 119] | 5.90 | – | 7.75 | 7.64 | 54.0 | – | – | –
C=CC(=O)Nc1cc(Nc2cc(-c3ccc4c(cnn4C)c3)ncn2)c(OC)cc1N1CCN(C)[C@H](C)C1 [compound 31] | 5.80 | – | 7.34 | 7.28 | 29.9 | – | – | –
C=CC(=O)Nc1cc(Nc2cc(-c3ccc4c(cnn4C)c3)ncn2)c(OC)cc1N1CCC(N2CCOCC2)CC1 [compound 208] | – | – | – | – | 54.8 | 5.96 | 7.97 | 7.70
C=CC(=O)Nc1cc(Nc2cc(-c3ccc4c(cnn4C)c3)ncn2)c(OC)cc1N1CCC(N(CC)CC)CC1 [compound 137] | 6.22 | – | 8.12 | 8.32 | – | – | – | –
C=CC(=O)Nc1cc(Nc2cc(-c3cc4cnn(C)c4cc3F)ncn2)c(OC)cc1OCCN(C)C [compound 194] | 5.79 | – | 7.34 | 7.12 | 21.8 | – | – | –
C=CC(=O)Nc1cc(Nc2nccc(-c3ccc4c(cnn4C)c3)n2)c(OC)cc1N(C)CCNC(C)(C)C [compound 246] | 5.64 | – | 7.17 | 7.05 | 25.6 | – | – | –
C=CC(=O)Nc1cc(Nc2cc(-c3ccc4c(cnn4C)c3)ncn2)c(OC(F)F)cc1N1C[C@@H](C)N[C@@H](C)C1 [compound 266] | 6.03 | – | 7.61 | 8.00 | 92.9 | – | – | –
C=CC(=O)Nc1cc(Nc2nccc(-c3ccc4c(cnn4C)c3)n2)c(OC)cc1N(C)CCNC(C)C [compound 281] | 5.48 | – | 7.17 | 7.14 | 46.2 | – | – | –
C=CC(=O)Nc1cc(Nc2cc(-c3ccc4c(cnn4C)c3)ncn2)c(OC(F)F)cc1N1CCC(N2C[C@@H](C)O[C@@H](C)C2)CC1 [compound 148] | 5.87 | – | 7.50 | 7.54 | 46.9 | – | – | –
C=CC(=O)Nc1cc(Nc2cc(-c3ccc4cnn(C)c4c3)ncn2)c(OC)cc1N1CCN(CCN(C)C)CC1 [compound 77] | 5.94 | – | 7.79 | 7.46 | 33.5 | – | – | –
C=CC(=O)Nc1cc(Nc2cc(-c3ccc4c(cnn4C)c3)ncn2)c(OC)cc1N(C)C1CCC(N(C)C)CC1 (centres unmarked) [compound 71] | 5.59 | – | 7.56 | 7.48 | 77.3 | – | – | –
C=CC(=O)Nc1cc(Nc2cc(-c3ccc4cnn(C)c4c3)ncn2)c(OC)cc1N1CCC(N(CC)CC)CC1 [compound 166] | 6.01 | – | 8.05 | 7.80 | – | – | – | –
